Experimental data reported in the NIST ThermoML archive (doi:10.1016/j.jct.2009.11.010).

Assays:
[1] = for vapor or sublimation pressure: Inclined piston gauge
[2] = Molar enthalpy of transition or fusion; details: Crystal; Adiabatic calorimetry
[3] = molar heat capacity at constant pressure; details: 101.33 kPa, Vacuum adiabatic calorimetry
[4] = molar heat capacity at saturation pressure; details: Vacuum adiabatic calorimetry

c1ccc2nc3ccccc3nc2c1 [phenazine]
Details	Triple point temperature [K]	molar heat capacity [J/K/mol]	molar heat capacity at constant pressure [J/K/mol]	vapor or sublimation pressure [kPa]
[1], 389.95 K, Crystal	–	–	–	0.0331
[1], 400.01 K, Crystal	–	–	–	0.0682
[1], 410 K, Crystal	–	–	–	0.1346
[1], 420 K, Crystal	–	–	–	0.2572
[1], 430 K, Crystal	–	–	–	0.476
[1], 449.96 K, Liquid	–	–	–	1.444
[1], 454.97 K, Liquid	–	–	–	1.754
[1], 460.06 K, Liquid	–	–	–	2.127
[1], 464.96 K, Liquid	–	–	–	2.548
[1], 469.96 K, Liquid	–	–	–	3.05
[1], 471.96 K, Liquid	–	–	–	3.273
[1], Crystal, Adiabatic calorimetry	447.91	–	–	–
[3], 5 K, Crystal	–	–	0.38	–
[3], 10 K, Crystal	–	–	2.76	–
[3], 20 K, Crystal	–	–	13.34	–
[3], 30 K, Crystal	–	–	25.08	–
[3], 40 K, Crystal	–	–	35.19	–
[3], 50 K, Crystal	–	–	43.5	–
[3], 60 K, Crystal	–	–	50.49	–
[3], 70 K, Crystal	–	–	56.66	–
[3], 80 K, Crystal	–	–	62.3	–
[3], 90 K, Crystal	–	–	67.8	–
[3], 100 K, Crystal	–	–	73.23	–
[3], 120 K, Crystal	–	–	84.23	–
[3], 140 K, Crystal	–	–	95.77	–
[3], 160 K, Crystal	–	–	107.87	–
[3], 180 K, Crystal	–	–	120.51	–
[3], 200 K, Crystal	–	–	133.66	–
[3], 220 K, Crystal	–	–	147.13	–
[3], 240 K, Crystal	–	–	160.98	–
[3], 260 K, Crystal	–	–	175.01	–
[3], 280 K, Crystal	–	–	188.99	–
[3], 298.15 K, Crystal	–	–	201.63	–
[3], 300 K, Crystal	–	–	202.93	–
[3], 320 K, Crystal	–	–	216.89	–
[3], 340 K, Crystal	–	–	230.56	–
[3], 360 K, Crystal	–	–	244.06	–
[3], 380 K, Crystal	–	–	257.36	–
[3], 400 K, Crystal	–	–	270.46	–
[3], 420 K, Crystal	–	–	283.41	–
[3], 440 K, Crystal	–	–	296.01	–
[3], 447.91 K, Crystal	–	–	300.87	–
[3], 447.91 K, Liquid	–	–	331.96	–
[3], 460 K, Liquid	–	–	337	–
[3], 480 K, Liquid	–	–	345.14	–
[3], 500 K, Liquid	–	–	353.07	–
[3], 520 K, Liquid	–	–	360.67	–
[4], 6.135 K, Crystal	–	0.71	–	–
[4], 7.091 K, Crystal	–	1.09	–	–
[4], 8.146 K, Crystal	–	1.57	–	–
[4], 9.073 K, Crystal	–	2.09	–	–
[4], 9.999 K, Crystal	–	2.77	–	–
[4], 11.1 K, Crystal	–	3.68	–	–
[4], 12.32 K, Crystal	–	4.78	–	–
[4], 13.68 K, Crystal	–	6.14	–	–
[4], 15.19 K, Crystal	–	7.78	–	–
[4], 16.85 K, Crystal	–	9.645	–	–
[4], 18.69 K, Crystal	–	11.81	–	–
[4], 20.75 K, Crystal	–	14.23	–	–
[4], 23.04 K, Crystal	–	16.99	–	–
[4], 25.58 K, Crystal	–	20	–	–
[4], 28.4 K, Crystal	–	23.28	–	–
[4], 31.54 K, Crystal	–	26.77	–	–
[4], 35.04 K, Crystal	–	30.43	–	–
[4], 38.95 K, Crystal	–	34.21	–	–
[4], 43.3 K, Crystal	–	38.1	–	–
[4], 48.12 K, Crystal	–	42.05	–	–
[4], 52.7 K, Crystal	–	45.41	–	–
[4], 53.49 K, Crystal	–	46.07	–	–
[4], 57.63 K, Crystal	–	48.91	–	–
[4], 59.46 K, Crystal	–	50.14	–	–
[4], 63.45 K, Crystal	–	52.68	–	–
[4], 69.82 K, Crystal	–	56.56	–	–
[4], 76.91 K, Crystal	–	60.58	–	–
[4], 84.71 K, Crystal	–	64.9	–	–
[4], 93.41 K, Crystal	–	69.64	–	–
[4], 102.69 K, Crystal	–	74.69	–	–
[4], 112.24 K, Crystal	–	79.93	–	–
[4], 121.98 K, Crystal	–	85.34	–	–
[4], 131.78 K, Crystal	–	90.96	–	–
[4], 141.72 K, Crystal	–	96.78	–	–
[4], 148.27 K, Crystal	–	100.69	–	–
[4], 151.74 K, Crystal	–	102.79	–	–
[4], 157 K, Crystal	–	106	–	–
[4], 161.79 K, Crystal	–	108.99	–	–
[4], 166.83 K, Crystal	–	112.14	–	–
[4], 176.79 K, Crystal	–	118.44	–	–
[4], 186.88 K, Crystal	–	124.97	–	–
[4], 197.06 K, Crystal	–	131.7	–	–
[4], 207.29 K, Crystal	–	138.54	–	–
[4], 217.54 K, Crystal	–	145.45	–	–
[4], 227.79 K, Crystal	–	152.5	–	–
[4], 238.02 K, Crystal	–	159.59	–	–
[4], 248.23 K, Crystal	–	166.76	–	–
[4], 258.43 K, Crystal	–	173.9	–	–
[4], 268.62 K, Crystal	–	181.08	–	–
[4], 278.79 K, Crystal	–	188.12	–	–
[4], 288.98 K, Crystal	–	195.25	–	–
[4], 292.45 K, Crystal	–	197.59	–	–
[4], 299.09 K, Crystal	–	202.31	–	–
[4], 303.14 K, Crystal	–	205.11	–	–
[4], 315.26 K, Crystal	–	213.62	–	–
[4], 327.34 K, Crystal	–	221.93	–	–
[4], 339.58 K, Crystal	–	230.27	–	–
[4], 341.22 K, Crystal	–	231.31	–	–
[4], 351.33 K, Crystal	–	238.27	–	–
[4], 362.68 K, Crystal	–	245.89	–	–
[4], 375.17 K, Crystal	–	254.22	–	–
[4], 383.74 K, Crystal	–	259.84	–	–
[4], 387.73 K, Crystal	–	262.47	–	–
[4], 394.22 K, Crystal	–	266.7	–	–
[4], 400.35 K, Crystal	–	270.7	–	–
[4], 404.56 K, Crystal	–	273.47	–	–
[4], 413.04 K, Crystal	–	278.97	–	–
[4], 415.93 K, Crystal	–	280.86	–	–
[4], 426.29 K, Crystal	–	287.62	–	–
[4], 428.38 K, Crystal	–	288.92	–	–
[4], 438.38 K, Crystal	–	296.29	–	–
[4], 439.14 K, Crystal	–	296.66	–	–
[4], 453.29 K, Liquid	–	334.17	–	–
[4], 455.84 K, Liquid	–	335.26	–	–
[4], 456.63 K, Liquid	–	335.61	–	–
[4], 460.6 K, Liquid	–	337.14	–	–
[4], 461.49 K, Liquid	–	337.63	–	–
[4], 475.45 K, Liquid	–	343.31	–	–
[4], 490.19 K, Liquid	–	349.18	–	–
[4], 504.28 K, Liquid	–	354.75	–	–
[4], 510.36 K, Liquid	–	357.26	–	–
[4], 516.76 K, Liquid	–	359.48	–	–

Details	Molar enthalpy of transition or fusion [kJ/mol]
[2]	24.92
